Assay results published in ChEMBL document CHEMBL1155388 (Bioorg Med Chem Lett, 2010).
Activity calls are given as the source filed them. The calls are words filed in the database; no cut-off is given here.

Experiments:
Format in all cases: functional, cell-based
[1] = target: T1, Muscarinic acetylcholine receptor M1 (Homo sapiens, UniProt P11229); assay: Potentiation of muscarinic M1 receptor expressed in CHO cells assessed as effect on acetylcholine-induced intracellular calcium mobilization after 1 hr by FLIPR assay
T1 sequence (P11229 whole entry): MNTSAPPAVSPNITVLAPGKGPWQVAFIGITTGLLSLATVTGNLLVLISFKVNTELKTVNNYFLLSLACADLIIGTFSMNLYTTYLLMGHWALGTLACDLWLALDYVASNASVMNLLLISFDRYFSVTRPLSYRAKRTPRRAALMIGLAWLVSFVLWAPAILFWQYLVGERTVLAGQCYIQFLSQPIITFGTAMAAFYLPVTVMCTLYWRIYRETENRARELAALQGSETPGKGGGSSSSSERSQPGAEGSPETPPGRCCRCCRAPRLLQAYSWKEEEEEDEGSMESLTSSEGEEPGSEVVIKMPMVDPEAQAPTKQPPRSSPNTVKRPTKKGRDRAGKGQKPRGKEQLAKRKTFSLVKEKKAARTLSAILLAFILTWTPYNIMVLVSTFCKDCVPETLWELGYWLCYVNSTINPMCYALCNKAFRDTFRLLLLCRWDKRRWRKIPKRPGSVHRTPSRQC

[2] = target: T2, Muscarinic acetylcholine receptor M1 (Homo sapiens) (UniProt P11229); assay: Potentiation of muscarinic M1 receptor expressed in CHO cells assessed as effect on acetylcholine-induced intracellular calcium mobilization after 1 hr by FLIPR assay relative to acetylcholine; set-up: concentration or dose not given beside the values
T2 sequence (whole entry): T1 sequence (P11229 whole entry)

[3] = target: T2, Muscarinic acetylcholine receptor M1 (Homo sapiens); assay: Potentiation of muscarinic M1 receptor expressed in CHO cells assessed as effect on acetylcholine-induced intracellular calcium mobilization at 30 uM after 1 hr by FLIPR assay
[4] = target: T3, Muscarinic acetylcholine receptor M2 (Homo sapiens) (UniProt P08172); assay: Potentiation of muscarinic M2 receptor expressed in CHO cells co-transfected with Gqi5 assessed as effect on acetylcholine-induced intracellular calcium mobilization up to 30 uM after 1 hr by FLIPR assay
T3 sequence (whole entry): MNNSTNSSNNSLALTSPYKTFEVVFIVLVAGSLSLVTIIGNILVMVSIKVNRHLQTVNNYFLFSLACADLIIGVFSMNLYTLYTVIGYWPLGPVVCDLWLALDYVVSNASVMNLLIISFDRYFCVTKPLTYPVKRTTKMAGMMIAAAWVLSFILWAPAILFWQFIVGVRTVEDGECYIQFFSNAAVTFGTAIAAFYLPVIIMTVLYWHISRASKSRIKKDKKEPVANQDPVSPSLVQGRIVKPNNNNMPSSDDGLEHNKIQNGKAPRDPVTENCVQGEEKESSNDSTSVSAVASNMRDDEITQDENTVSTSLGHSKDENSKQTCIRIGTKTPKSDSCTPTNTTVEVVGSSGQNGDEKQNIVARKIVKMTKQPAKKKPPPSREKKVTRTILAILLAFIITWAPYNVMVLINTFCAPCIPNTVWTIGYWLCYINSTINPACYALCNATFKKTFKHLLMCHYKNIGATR

[5] = target: Muscarinic acetylcholine receptor M3 (Homo sapiens) (UniProt P20309); assay: Potentiation of muscarinic M3 receptor expressed in CHO cells assessed as effect on acetylcholine-induced intracellular calcium mobilization up to 30 uM after 1 hr by FLIPR assay
[6] = target: T4, Muscarinic acetylcholine receptor M4 (Homo sapiens) (UniProt P08173); assay: Potentiation of muscarinic M4 receptor expressed in CHO cells co-transfected with Gqi5 assessed as effect on acetylcholine-induced intracellular calcium mobilization up to 30 uM after 1 hr by FLIPR assay
T4 sequence (whole entry): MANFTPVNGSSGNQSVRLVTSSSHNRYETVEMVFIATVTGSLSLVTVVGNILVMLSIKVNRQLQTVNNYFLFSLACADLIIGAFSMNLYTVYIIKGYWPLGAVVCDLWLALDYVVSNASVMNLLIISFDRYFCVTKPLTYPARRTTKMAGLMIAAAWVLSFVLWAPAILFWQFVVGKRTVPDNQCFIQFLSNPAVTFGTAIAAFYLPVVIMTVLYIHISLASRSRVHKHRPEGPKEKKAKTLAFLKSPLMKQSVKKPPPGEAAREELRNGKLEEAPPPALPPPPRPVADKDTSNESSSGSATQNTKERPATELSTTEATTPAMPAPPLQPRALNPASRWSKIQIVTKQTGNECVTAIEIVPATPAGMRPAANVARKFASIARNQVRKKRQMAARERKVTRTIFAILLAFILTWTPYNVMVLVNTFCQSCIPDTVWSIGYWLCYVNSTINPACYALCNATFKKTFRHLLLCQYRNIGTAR

[7] = target: T5, Muscarinic acetylcholine receptor M5 (Homo sapiens) (UniProt P08912); assay: Potentiation of muscarinic M5 receptor expressed in CHO cells assessed as effect on acetylcholine-induced intracellular calcium mobilization up to 30 uM after 1 hr by FLIPR assay
T5 sequence (whole entry): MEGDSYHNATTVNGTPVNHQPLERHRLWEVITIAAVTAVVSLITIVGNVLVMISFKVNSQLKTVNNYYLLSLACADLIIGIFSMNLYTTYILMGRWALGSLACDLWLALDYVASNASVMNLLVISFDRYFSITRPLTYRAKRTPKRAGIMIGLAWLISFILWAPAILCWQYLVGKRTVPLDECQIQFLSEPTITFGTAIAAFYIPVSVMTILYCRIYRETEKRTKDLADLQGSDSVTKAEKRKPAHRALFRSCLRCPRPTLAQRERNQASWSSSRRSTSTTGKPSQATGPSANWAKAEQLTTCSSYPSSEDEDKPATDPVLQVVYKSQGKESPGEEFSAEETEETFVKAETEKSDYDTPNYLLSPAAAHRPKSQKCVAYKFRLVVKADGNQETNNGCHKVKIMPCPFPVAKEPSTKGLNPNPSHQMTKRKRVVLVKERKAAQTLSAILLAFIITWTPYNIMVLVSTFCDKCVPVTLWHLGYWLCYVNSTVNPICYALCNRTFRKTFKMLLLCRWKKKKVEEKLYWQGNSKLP

[8] = target: T2, Muscarinic acetylcholine receptor M1 (Homo sapiens); assay: Potentiation of muscarinic M1 receptor expressed in CHO cells assessed as effect on acetylcholine-induced intracellular calcium mobilization at 100 uM after 1 hr by FLIPR assay
[9] = target: T2, Muscarinic acetylcholine receptor M1 (Homo sapiens); assay: Potentiation of muscarinic M1 receptor expressed in CHO cells assessed as effect on acetylcholine-induced intracellular calcium mobilization at 10 uM after 1 hr by FLIPR assay
[10] = target: T5, Muscarinic acetylcholine receptor M5 (Homo sapiens); assay: Potentiation of muscarinic M5 receptor expressed in CHO cells assessed as effect on acetylcholine-induced intracellular calcium mobilization at 30 uM after 1 hr by FLIPR assay relative to acetylcholine
[11] = target: Muscarinic acetylcholine receptor M3 (Homo sapiens) (UniProt P20309); assay: Potentiation of muscarinic M3 receptor expressed in CHO cells assessed as effect on acetylcholine-induced intracellular calcium mobilization at 30 uM after 1 hr by FLIPR assay relative to acetylcholine
[12] = target: T5, Muscarinic acetylcholine receptor M5 (Homo sapiens); assay: Potentiation of muscarinic M5 receptor expressed in CHO cells assessed as effect on acetylcholine-induced intracellular calcium mobilization at 10 uM after 1 hr by FLIPR assay relative to acetylcholine

Sequence of Muscarinic acetylcholine receptor M3 (Homo sapiens) (P20309 whole entry, looked up): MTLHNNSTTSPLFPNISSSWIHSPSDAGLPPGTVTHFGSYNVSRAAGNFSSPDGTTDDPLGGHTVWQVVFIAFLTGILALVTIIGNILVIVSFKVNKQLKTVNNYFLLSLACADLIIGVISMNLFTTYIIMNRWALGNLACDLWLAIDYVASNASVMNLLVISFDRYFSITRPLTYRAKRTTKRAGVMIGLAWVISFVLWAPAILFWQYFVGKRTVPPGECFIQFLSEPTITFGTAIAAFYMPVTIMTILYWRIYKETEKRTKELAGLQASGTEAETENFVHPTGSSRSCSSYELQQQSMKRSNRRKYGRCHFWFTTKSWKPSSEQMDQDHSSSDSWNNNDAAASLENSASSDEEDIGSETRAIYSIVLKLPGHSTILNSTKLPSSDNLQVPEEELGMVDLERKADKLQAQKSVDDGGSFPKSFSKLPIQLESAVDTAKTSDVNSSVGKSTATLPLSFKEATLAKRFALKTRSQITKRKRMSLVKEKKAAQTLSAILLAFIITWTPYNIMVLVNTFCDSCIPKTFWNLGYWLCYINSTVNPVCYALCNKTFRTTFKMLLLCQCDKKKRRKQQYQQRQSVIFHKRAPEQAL

SMILES | EC50 [1] [µM] | Activity [2] [%] | fold change (FC) [3] | also measured
Cn1cc(-c2ccc(CN3C(=O)C(=O)c4ccccc43)c(F)c2)cn1 | 0.83 | 65 | 3 | Activity [4]: inactive; Activity [5]: inactive; Activity [6]: inactive; Activity [7]: inactive; fold change (FC) [7]: 3
COc1ccc(Cn2cc(C(=O)O)c(=O)c3ccccc32)cc1 |  | 100 |  | fold change (FC) [8]: 100
Cn1cc(-c2cc(F)c(CN3C(=O)C(=O)c4cccc(F)c43)c(F)c2)cn1 | 1.1 | 40 |  | 
Cn1cc(-c2ccc(CN3C(=O)C(=O)c4cccc(F)c43)c(F)c2)cn1 | 2.3 | 55 |  | 
Cn1cc(-c2ccc(CN3C(=O)C(=O)c4ccccc43)cc2)cn1 | 2.3 | 80 | 14 | fold change (FC) [9]: 5; Activity [10]: 35%; fold change (FC) [10]: 14; Activity [11]: 25%; fold change (FC) [12]: 5
Cn1cc(-c2cc(F)c(CN3C(=O)C(=O)c4ccccc43)c(F)c2)cn1 | 0.86 | 60 | 2 | fold change (FC) [7]: 2
Cn1cc(-c2ccc(CN3C(=O)C(=O)c4c(F)ccc(F)c43)c(F)c2)cn1 | 1.2 | 50 |  | 
